From patent US12514251B2, “Fused heterocyclic compounds and their use as pest control agents” (priority 2020, dated 2026)

System: Plutella xylostella
Assay: Plutella xylostella, leaf dip method
Assay type: in vivo
Conditions: foliar, cabbage leaf dip, second instar larvae, 72 h after release, dead + moribund vs untreated control, read-out: percent mortality
Description: The leaf dip method was used for testing, wherein the required quantity of the compound was weighed and dissolved in a tube containing solvent solution. The tube was put on a vortex at 2000 rpm for 90 min for proper mixing, then diluted with 0.01% Triton-X solution to get the desired test concentration. Cabbage leaves were dipped in the compound solution for 10 seconds, shade dried for 20 min and then transferred into the cells of bioassay trays. A single second instar larva was released into each cell and the tray was covered with a lid. The bio-assay trays were then kept under laboratory conditions at a temperature of 25° C. and a relative humidity of 70%. Observations on dead, moribund and alive larvae were recorded 72 h after the release. Percent mortality was calculated by combining dead and moribund larvae and comparing the result to the one of the untreated control.

Row | Compound | mortality at 300 ppm [%]
1 | CCSc1ccc(C)nc1-c1ccn2nc(C(F)(F)F)nc2n1 [Compound 187, 5-(3-(ethylthio)-6-methylpyridin-2-yl)-2-(trifluoromethyl)-[1,2,4]triazolo[1,5-a]pyrimidine] | ≥ 70
2 | CCSc1cc(C2CC2)cnc1-c1ccn2nc(C(F)(F)F)cc2n1 [Compound 189, 5-(5-cyclopropyl-3-(ethylthio)pyridin-2-yl)-2-(trifluoromethyl)pyrazolo[1,5-a]pyrimidine] | ≥ 70
3 | CCSc1cc(-c2ccc(F)cc2)cnc1-c1ccn2nc(C(F)(F)F)cc2n1 [Compound 190, 5-(3-(ethylthio)-5-(4-fluorophenyl)pyridin-2-yl)-2-(trifluoromethyl)pyrazolo[1,5-a]pyrimidine] | ≥ 70
4 | CCSc1cc(-c2ccc(OC(F)(F)C(F)F)cc2)cnc1-c1ccn2nc(C(F)(F)F)cc2n1 [Compound 191, 5-(3-(ethylthio)-5-(4-(1,1,2,2-tetrafluoroethoxy)phenyl)pyridin-2-yl)-2-(trifluoromethyl)pyrazolo[1,5-a]pyrimidine] | ≥ 70
5 | CCS(=O)(=O)c1cc(C=C(C)C)cnc1-c1ccn2nc(C(F)(F)F)cc2n1 [Compound 201, 5-(3-(ethylsulfonyl)-5-(2-methylprop-1-en-1-yl)pyridin-2-yl)-2-(trifluoromethyl)pyrazolo[1,5-a]pyrimidine] | ≥ 70
6 | CCc1ccc(S(=O)(=O)CC)c(-c2ccn3nc(C(F)(F)F)cc3n2)n1 [Compound 209, 5-(6-ethyl-3-(ethylsulfonyl)pyridin-2-yl)-2-(trifluoromethyl)pyrazolo[1,5-a]pyrimidine] | ≥ 70
7 | CCS(=O)(=O)c1ccc(C=C(C)C)nc1-c1ccn2nc(C(F)(F)F)cc2n1 [Compound 210, 5-(3-(ethylsulfonyl)-6-(2-methylprop-1-en-1-yl)pyridin-2-yl)-2-(trifluoromethyl)pyrazolo[1,5-a]pyrimidine] | ≥ 70
8 | CCc1cnc(-c2ccn3nc(C(F)(F)F)cc3n2)c(S(=O)(=O)CC)c1 [Compound 211, 5-(5-ethyl-3-(ethylsulfonyl)pyridin-2-yl)-2-(trifluoromethyl)pyrazolo[1,5-a]pyrimidine] | ≥ 70
9 | C=Cc1cnc(-c2ccn3nc(C(F)(F)F)cc3n2)c(S(=O)(=O)CC)c1 [Compound 212, 5-(3-(ethylsulfonyl)-5-vinylpyridin-2-yl)-2-(trifluoromethyl)pyrazolo[1,5-a]pyrimidine] | ≥ 70
10 | CCS(=O)(=O)c1cc(C2CCC2)cnc1-c1ccn2nc(C(F)(F)F)cc2n1 [Compound 213, 5-(5-cyclobutyl-3-(ethylsulfonyl)pyridin-2-yl)-2-(trifluoromethyl)pyrazolo[1,5-a]pyrimidine] | ≥ 70
11 | CCS(=O)(=O)c1ccc(/C=C/C2CC2)nc1-c1ccn2nc(C(F)(F)F)cc2n1 [Compound 216, (E)-5-(6-(2-cyclopropylvinyl)-3-(ethylsulfonyl)pyridin-2-yl)-2-(trifluoromethyl)pyrazolo[1,5-a]pyrimidine] | ≥ 70
12 | CCS(=O)(=O)c1ccc(CC#N)nc1-c1ccn2nc(C(F)(F)F)cc2n1 [Compound 217, 2-(5-(ethylsulfonyl)-6-(2-(trifluoromethyl)pyrazolo[1,5-a]pyrimidin-5-yl)pyridin-2-yl)acetonitrile] | ≥ 70
13 | CCS(=O)(=O)c1cc(NC)cnc1-c1ccn2nc(C(F)(F)F)cc2n1 [Compound 218, 5-(ethylsulfonyl)-N-methyl-6-(2-(trifluoromethyl)pyrazolo[1,5-a]pyrimidin-5-yl)pyridin-3-amine] | ≥ 70
14 | CCS(=O)(=O)c1cc(NC(=O)OC(C)(C)C)cnc1-c1ccn2nc(C(F)(F)F)cc2n1 [Compound 222, tert-butyl (5-(ethylsulfonyl)-6-(2-(trifluoromethyl)pyrazolo[1,5-a]pyrimidin-5-yl)pyridin-3-yl)carbamate] | ≥ 70
15 | CCS(=O)(=O)c1cc(N)cnc1-c1ccn2nc(C(F)(F)F)cc2n1 [Compound 223, 5-(ethylsulfonyl)-6-(2-(trifluoromethyl)pyrazolo[1,5-a]pyrimidin-5-yl)pyridin-3-amine] | ≥ 70
16 | CCS(=O)(=O)c1ccc(OC)nc1-c1ccn2nc(C(F)(F)F)cc2n1 [Compound 226, 5-(3-(ethylsulfonyl)-6-methoxypyridin-2-yl)-2-(trifluoromethyl)pyrazolo[1,5-a]pyrimidine] | ≥ 70
17 | CCOc1ccc(S(=O)(=O)CC)c(-c2ccn3nc(C(F)(F)F)cc3n2)n1 [Compound 227, 5-(6-ethoxy-3-(ethylsulfonyl)pyridin-2-yl)-2-(trifluoromethyl)pyrazolo[1,5-a]pyrimidine] | ≥ 70
18 | CCS(=O)(=O)c1cc(N(C)C)cnc1-c1ccn2nc(C(F)(F)F)cc2n1 [Compound 230, 5-(ethylsulfonyl)-N,N-dimethyl-6-(2-(trifluoromethyl)pyrazolo[1,5-a]pyrimidin-5-yl)pyridin-3-amine] | ≥ 70
19 | CCS(=O)(=O)c1cc(CC#N)cnc1-c1ccn2nc(C(F)(F)F)cc2n1 [Compound 232, 2-(5-(ethylsulfonyl)-6-(2-(trifluoromethyl)pyrazolo[1,5-a]pyrimidin-5-yl)pyridin-3-yl)acetonitrile] | ≥ 70
20 | CCS(=O)(=O)c1cc(NC(=O)C2CC2)cnc1-c1ccn2nc(C(F)(F)F)cc2n1 [Compound 233, N-(5-(ethylsulfonyl)-6-(2-(trifluoromethyl)pyrazolo[1,5-a]pyrimidin-5-yl)pyridin-3-yl)cyclopropanecarboxamide] | ≥ 70
21 | CCS(=O)(=O)c1ccc(O)nc1-c1ccn2nc(C(F)(F)F)cc2n1 [Compound 236, 5-(ethylsulfonyl)-6-(2-(trifluoromethyl)pyrazolo[1,5-a]pyrimidin-5-yl)pyridin-2-ol] | ≥ 70
22 | CCS(=O)(=O)c1ccc(C(C)C)nc1-c1ccn2nc(C(F)(F)F)cc2n1 [Compound 238, 5-(3-(ethylsulfonyl)-6-isopropylpyridin-2-yl)-2-(trifluoromethyl)pyrazolo[1,5-a]pyrimidine] | ≥ 70
23 | CCS(=O)(=O)c1ccc(OCC(F)(F)F)nc1-c1ccn2nc(C(F)(F)F)cc2n1 [Compound 239, 5-(3-(ethylsulfonyl)-6-(2,2,2-trifluoroethoxy)pyridin-2-yl)-2-(trifluoromethyl)pyrazolo[1,5-a]pyrimidine] | ≥ 70
24 | CCS(=O)(=O)c1ccc(OC(C)C)nc1-c1ccn2nc(C(F)(F)F)cc2n1 [Compound 240, 5-(3-(ethylsulfonyl)-6-isopropoxypyridin-2-yl)-2-(trifluoromethyl)pyrazolo[1,5-a]pyrimidine] | ≥ 70
25 | CCS(=O)(=O)c1ccc(NC(C)C)nc1-c1ccn2nc(C(F)(F)F)cc2n1 [Compound 241, 5-(ethylsulfonyl)-N-isopropyl-6-(2-(trifluoromethyl)pyrazolo[1,5-a]pyrimidin-5-yl)pyridin-2-amine] | ≥ 70
26 | CCS(=O)(=O)c1ccc(NCC2CC2)nc1-c1ccn2nc(C(F)(F)F)cc2n1 [Compound 242, N-(cyclopropylmethyl)-5-(ethylsulfonyl)-6-(2-(trifluoromethyl)pyrazolo[1,5-a]pyrimidin-5-yl)pyridin-2-amine] | ≥ 70
